Source: ChEMBL document CHEMBL3217691, “Discovery and optimization of efficacious neutral 4-amino-6-biphenyl-7,8-dihydropyrimido[5,4-f][1,4]oxazepin-5-one diacylglycerol acyl transferase-1 (DGAT1) inhibitors” (Medchemcomm, 2013)

Assays:
[1] = physchem; conditions: buffer, pH 7.4
[2] = Oral bioavailability in Han Wistar rat at 2.3 to […]; type: ADME, organism-based; conditions: in vivo
[3] = in vitro; conditions: human, Caco-2
[4] = in vitro; conditions: rat, hepatocytes
[5] = in vivo; conditions: Han Wistar, rat, iv
[6] = Half life in mouse at 2 mg/kg, iv; type: ADME, organism-based; set-up: dose 2 mg/kg, route intravenous; conditions: in vivo
[7] = Oral bioavailability in mouse at 2 mg/kg; type: ADME, organism-based; conditions: in vivo
[8] = Half life in rat at 1 mg/kg, iv; type: ADME, organism-based; set-up: dose 1 mg/kg, route intravenous; conditions: in vivo
[9] = Volume of distribution at steady state in rat plasma at 1 mg/kg, iv and 2 mg/kg, po; type: ADME, organism-based; conditions: read-out: Vdss
[10] = Clearance in rat plasma at 1 mg/kg, iv and 2 mg/kg, po; type: ADME, organism-based
[11] = Half life in mouse at 2 mg/kg, po; type: ADME, organism-based; set-up: dose 2 mg/kg, route oral; conditions: in vivo
[12] = Oral bioavailability in rat at 2 mg/kg; type: ADME, organism-based; conditions: in vivo
[13] = system: Mus musculus; assay: Volume of distribution at steady state in mouse plasma at 2 mg/kg, iv and po; type: ADME, organism-based; set-up: dose 2 mg/kg, route oral; conditions: in vivo
[14] = Half life in rat at 2 mg/kg, po; type: ADME, organism-based; set-up: dose 2 mg/kg, route oral; conditions: in vivo
[15] = Oral bioavailability in dog at 0.5 mg/kg; type: ADME, organism-based, Canis lupus familiaris; conditions: in vivo
[16] = Half life in dog at 0.5 mg/kg, iv; type: ADME, organism-based, Canis lupus familiaris; set-up: dose 0.5 mg/kg, route intravenous; conditions: in vivo
[17] = system: Canis familiaris; assay: Volume of distribution at steady state in dog plasma at 0.5 mg/kg, iv and po; type: ADME, organism-based, Canis lupus familiaris; set-up: dose 0.5 mg/kg, route oral; conditions: in vivo

logD [1] | bioavailability ([2]; at 2.3 to […]) | Papp A→B [3] | hepatocyte CLint [4] | SMILES | also measured
> 3.9 | – | – | – | Nc1ncnc2c1C(=O)N(c1ccc(-c3ccc(Cl)cc3Cl)cc1)CCO2 | bioavailability [2]: 87%
1.1 | – | 6.4 ×10⁻⁶ cm/s | < 2 µL/min/1e6 cells | Nc1ncnc2c1C(=O)N(c1ccc(-c3ccc(CN4CC[C@H](O)C4=O)cc3Cl)cc1)CCO2 | –
1.3 | – | – | 35 µL/min/1e6 cells | NC(=O)Cc1ccc(-c2ccc(N3CCOc4ncnc(N)c4C3=O)cc2)c(Cl)c1 | –
2.1 | – | > 10 ×10⁻⁶ cm/s | – | N#Cc1cccc(Cl)c1-c1ccc(N2CCOc3ncnc(N)c3C2=O)cc1 | –
– | 28% | – | 5.9 µL/min/1e6 cells | CN(Cc1ccc(-c2ccc(N3CCOc4ncnc(N)c4C3=O)cc2)c(Cl)c1)S(C)(=O)=O | clearance [5]: 5 mL/min/kg
2.9 | – | > 10 ×10⁻⁶ cm/s | – | Nc1ncnc2c1C(=O)N(c1ccc(-c3c(F)cccc3F)c(F)c1)CCO2 | –
– | 61% | – | < 2.8 µL/min/1e6 cells | CS(=O)(=O)Cc1ccc(-c2ccc(N3CCOc4ncnc(N)c4C3=O)cc2)c(Cl)c1 | clearance [5]: 5 mL/min/kg
-1 | – | 0.2 ×10⁻⁶ cm/s | < 2 µL/min/1e6 cells | CN(Cc1ccc(-c2ccc(N3CCOc4ncnc(N)c4C3=O)cc2)c(Cl)c1)C(=O)CCCN | –
3 | 14% | > 10 ×10⁻⁶ cm/s | – | Nc1ncnc2c1C(=O)N(c1ccc(-c3ccccc3Cl)c(F)c1)CCO2 | clearance [5]: 18 mL/min/kg
1.1 | – | – | < 3.1 µL/min/1e6 cells | Nc1ncnc2c1C(=O)N(c1ccc(-c3ccc(CC(=O)N4CC(O)C4)cc3Cl)cc1)CCO2 | –
2.7 | – | > 10 ×10⁻⁶ cm/s | – | Cc1ccccc1-c1ccc(N2CCOc3ncnc(N)c3C2=O)cc1 | –
-0.4 | – | – | 14 µL/min/1e6 cells | Nc1ncnc2c1C(=O)N(c1ccc(-c3ccc(CC(=O)O)cc3Cl)cc1)CCO2 | –
2.9 | 65% | 32.5 ×10⁻⁶ cm/s | 11.1 µL/min/1e6 cells | Nc1ncnc2c1C(=O)N(c1ccc(-c3ccccc3Cl)cc1)CCO2 | clearance [5]: 21 mL/min/kg
– | – | – | 18.4 µL/min/1e6 cells | Nc1ncnc2c1C(=O)N(c1ccc(-c3ccc(Cn4cccnc4=O)cc3Cl)cc1)CCO2 | –

The remaining lines, values behind:

SMILES | logD [1] | bioavailability ([2]; at 2.3 to […]) | Papp A→B [3] | hepatocyte CLint [4] | also measured
Nc1ncnc2c1C(=O)N(c1ccc(-c3ccc(C(F)F)cc3Cl)cc1)CCO2 | 3.2 | 150% | – | – | –
CN(Cc1ccc(-c2ccc(N3CCOc4ncnc(N)c4C3=O)cc2)c(Cl)c1)C(=O)CN | 0.1 | – | 0.2 ×10⁻⁶ cm/s | 4.9 µL/min/1e6 cells | –
N#Cc1cccc(-c2ccc(N3CCOc4ncnc(N)c4C3=O)cc2)c1Cl | 2.5 | – | 54.8 ×10⁻⁶ cm/s | 4.6 µL/min/1e6 cells | –
CN(Cc1ccc(-c2ccc(N3CCOc4ncnc(N)c4C3=O)cc2)c(Cl)c1)C(=O)CCN | -0.5 | – | 0.3 ×10⁻⁶ cm/s | < 2 µL/min/1e6 cells | –
Cc1cccc(Cl)c1-c1ccc(N2CCOc3ncnc(N)c3C2=O)cc1 | 3.4 | – | > 10 ×10⁻⁶ cm/s | – | –
Nc1ncnc2c1C(=O)N(c1ccc(-c3ccccc3)cc1)CCO2 | 2.4 | – | > 10 ×10⁻⁶ cm/s | – | –
Nc1ncnc2c1C(=O)N(c1ccc(-c3ccc(CC(=O)N4CC[C@@H](O)C4)cc3Cl)cc1)CCO2 | 1.1 | 15% | 1.1 ×10⁻⁶ cm/s | – | –
Nc1ncnc2c1C(=O)N(c1ccc(-c3ccc(CC(=O)N4CCNC(=O)C4)cc3Cl)cc1)CCO2 | 0.9 | 3% | – | – | –
Nc1ncnc2c1C(=O)N(c1ccc(-c3c(F)cccc3F)cc1)CCO2 | 2.5 | – | > 10 ×10⁻⁶ cm/s | – | –
Cc1ccc(-c2ccc(N3CCOc4ncnc(N)c4C3=O)cc2)c(Cl)c1 | 3.5 | 14% | 16.6 ×10⁻⁶ cm/s | – | –
CC(=O)NCc1ccc(-c2ccc(N3CCOc4ncnc(N)c4C3=O)cc2)c(Cl)c1 | 1.8 | 100% | 14.5 ×10⁻⁶ cm/s | – | –
N#Cc1ccc(-c2ccc(N3CCOc4ncnc(N)c4C3=O)cc2)c(Cl)c1 | 2.4 | – | 48.2 ×10⁻⁶ cm/s | 4.8 µL/min/1e6 cells | –
CC(=O)N(C)Cc1ccc(-c2ccc(N3CCOc4ncnc(N)c4C3=O)cc2)c(Cl)c1 | 1.9 | – | 19.7 ×10⁻⁶ cm/s | 11 µL/min/1e6 cells | –
Nc1ncnc2c1C(=O)N(c1ccc(-c3cccc(Cl)c3Cl)cc1)CCO2 | 3.8 | 150% | – | 9.3 µL/min/1e6 cells | clearance [5]: 24 mL/min/kg
Nc1ncnc2c1C(=O)N(c1ccc(-c3ccc(CO)cc3Cl)cc1)CCO2 | – | – | 16.8 ×10⁻⁶ cm/s | – | –
Nc1ncnc2c1C(=O)N(c1ccc(-c3ncccc3Cl)cc1)CCO2 | 1.5 | 68% | > 10 ×10⁻⁶ cm/s | – | –
CS(=O)(=O)NCc1ccc(-c2ccc(N3CCOc4ncnc(N)c4C3=O)cc2)c(Cl)c1 | 1.8 | 21% | 11.3 ×10⁻⁶ cm/s | – | –
Nc1ncnc2c1C(=O)N(c1ccc(-c3ccccc3F)cc1)CCO2 | – | 93% | > 10 ×10⁻⁶ cm/s | < 2 µL/min/1e6 cells | half-life [6]: 3.5 h; bioavailability [7]: > 100%; half-life [8]: 6.7 h; Vd [9]: 1.9 L/kg; clearance [10]: 7.3 mL/min/kg; half-life [11]: 3.1 h; bioavailability [12]: 93%; clearance [5]: 7 mL/min/kg; Vdss [13]: 0.6 L/kg; half-life [14]: 3.3 h; bioavailability [15]: 76%; half-life [16]: 1.2 h; Vdss [17]: 2.4 L/kg
Nc1ncnc2c1C(=O)N(c1ccc(-c3cc(Cl)ccc3Cl)cc1)CCO2 | 3.7 | 110% | 16.2 ×10⁻⁶ cm/s | 9.5 µL/min/1e6 cells | clearance [5]: 12 mL/min/kg
